Experimental data as given in ChEMBL document CHEMBL5321254, “A method for tritiation of iboxamycin permits measurement of its ribosomal binding” (Bioorg Med Chem Lett, 2023).

How the values were obtained:
Assay type in all cases: subcellular
Bacterial 70S ribosome [1] = assay: Binding affinity to Escherichia coli ribosomes assessed as apparent inhibition constant by scintillation counter analysis; details: read-out: Ki(app)
[2] = target: Bacterial 70S ribosome (Bacteria) (UniProt P0A7V0+P60723+P0AG67+P0A7R5+P0A7R9+P0A7S3+P0A7S9+P0AG59+P0ADZ4+P0A7T3+P0AG63+P0A7T7+P0A7U3+P0A7U7+P68679+P0A7V3+P0A7V8+P0A7W1+P02358+P02359+P0A7W7+P0A7X3+P0A7J3+P0A7J7+P0AA10+P0ADY3+P02413+P0ADY7+P0AG44+P0C018+P0A7K6+P0A7L0+P0A7L3+P0AG48+P61175+P0ADZ0+P60624+P68919+P0A7L8+P0A7M2+P0A7M6+P60422+P0AG51+P0A7N1+P0A7M9+P0A7N4+P0A7N9+P0A7P5+P0A7Q1+Q2EEQ2+P0A7Q6+P60438+P62399+P0AG55+P0A7K2); assay: Potency index, ratio of clindamycin Ki(app) to test compound Ki(app) for binding affinity to Escherichia coli ribosomes
Bacterial 70S ribosome [3] = assay: Binding affinity to Escherichia coli ribosomes assessed as apparent dissociation constant by scintillation counter analysis; details: read-out: Kd(app)

CCC[C@@H]1C[C@@H](C(=O)N[C@@H]([C@H]2O[C@H](SC)[C@H](O)[C@@H](O)[C@H]2O)[C@H](C)Cl)N(C)C1 [CLINDAMYCIN] showed a Ki (Bacterial 70S ribosome [1]) of 2700 nM.
Compound CS[C@H]1O[C@H]([C@H](NC(=O)[C@H]2NC[C@@H]3C[C@H](CC(C)C)CCO[C@H]32)[C@H](C)Cl)[C@H](O)[C@H](O)[C@H]1O has a Ki (Bacterial 70S ribosome [1]) of 41 nM, a Ratio Ki(app) [2] of 70 and a Kd (Bacterial 70S ribosome [3]) of 34 nM.
